Experimental data reported in patent US9233968B1, “Kinase inhibitors” (Allergan, Inc., priority 2014, dated 2016).

Legend:
[1] = biological target: PDGFRβ (cytoplasmic domain PDGFR-b protein) (Homo sapiens (Human), UniProt P09619); assay: PDGFRβ Kinase Assay; format: biochemical; settings: 36 μM ATP, poly-Glu-Tyr substrate; read-out: Enzyme PDGFRβ IC50
Experimental: Biochemical PDGFRβ kinase assays were performed in 96 well microtiter plates that were coated overnight with 75 μg of poly-Glu-Tyr (4:1) in 10 mM Phosphate Buffered Saline (PBS), pH 7.4. The coated plates were washed with 2 mls per well PBS+0.05% Tween-20 (PBS-T), blocked by incubation with PBS containing 1% BSA, then washed with 2 mls per well PBS-T prior to starting the reaction. […] Reactions were initiated by the addition 20 μl per well of kinase buffer containing 200-300 ng purified cytoplasmic domain PDGFR-b protein (Millipore). Following a 60 minute incubation at 30° C., the reactions were washed 2 mls per well PBS-T. 100 μl of a monoclonal anti-phosphotyrosine antibody-peroxidase conjugate diluted 1:10,000 in PBS-T was added to the wells for 30 minutes. Following a 2 mls per well wash with PBS-Tween-20, 100 μl of O-Phenylenediamine Dihydrochloride in phosphate-citrate buffer, containing urea hydrogen peroxide, was added to the wells for 7-10 minutes as a colorimetric substrate for the peroxidase. […] IC50 values for compound inhibition were calculated directly from graphs of optical density (arbitrary units) versus compound concentration following subtraction of blank values.

PDGFRβ = PDGFRβ (Homo sapiens (Human), UniProt P09619); assay: PDGFRβ Cellular Assay (FLIPR, PDGF-induced intracellular calcium in NHDF-Ad); format: cell-based; settings: PDGF-BB stimulation 30 ng/mL, read-out: Receptor PDGFRβ IC50
Experimental: (§1) Automated FLIPR (Fluorometric Imaging Plate Reader) technology was used to screen for inhibitors of PDGF-induced increases in intracellular calcium levels in fluorescent dye loaded endothelial cells. NHDF-Ad (Normal Human Dermal Fibroblasts, Adult; Lonza) were seeded in 384-well fibronectin coated black-walled plates overnight at 37° C./5% CO2. Cells were loaded with calcium indicator Fluo-4 for 45 minutes at 37° C. Cells were washed 2 times (Elx405, Biotek Instruments) to remove extracellular dye. For screening, cells were pre-incubated with test agents for 30 minutes, at a single concentration (10 μM) or at concentrations ranging from 0.0001 to 10.0 μM followed by PDGF-BB stimulation (30 ng/mL). […] Data were generated by determining max-min fluorescence levels for unstimulated, stimulated, and drug treated samples. IC50 values for test compounds were calculated from % inhibition of PDGF-BB stimulated responses in the absence of inhibitor.

[2] = biological target: VEGFR2 (cytoplasmic domain KDR protein) (Homo sapiens (Human), UniProt P35968); assay: VEGFR2 Kinase Assay (biochemical KDR kinase assay); settings: 2.7 μM ATP, poly-Glu-Tyr substrate; read-out: Enzyme VEGFR2 IC50
Experimental: Biochemical KDR kinase assays were performed in 96 well microtiter plates that were coated overnight with 75 μg/well of poly-Glu-Tyr (4:1) in 10 mM Phosphate Buffered Saline (PBS), pH 7.4. The coated plates were washed with 2 mls per well PBS+0.05% Tween-20 (PBS-T), blocked by incubation with PBS containing 1% BSA, then washed with 2 mls per well PBS-T prior to starting the reaction. Reactions were carried out in 100 μL reaction volumes containing 2.7 μM ATP in kinase buffer (50 mM Hepes buffer pH 7.4, 20 mM MgCl2, 0.1 mM MnCl2 and 0.2 mM Na3VO4). […] Reactions were initiated by the addition 20 μl per well of kinase buffer containing 200-300 ng purified cytoplasmic domain KDR protein (BPS Bioscience, San Diego, Calif.). Following a 15 minute incubation at 30° C., the reactions were washed 2 mls per well PBS-T. 100 μl of a monoclonal anti-phosphotyrosine antibody-peroxidase conjugate diluted 1:10,000 in PBS-T was added to the wells for 30 minutes. Following a 2 mls per well wash with PBS-Tween-20, 100 μl of O-Phenylenediamine Dihydrochloride in phosphate-citrate buffer, containing urea hydrogen peroxide, was added to the wells for 7-10 minutes as a colorimetric substrate for the peroxidase. The reaction was terminated by the addition of 100 μl of 2.5N H2SO4 to each well and read using a microplate ELISA reader set at 492 nm. IC50 values for compound inhibition were calculated directly from graphs of optical density (arbitrary units) versus compound concentration following subtraction of blank values.

VEGFR2 = VEGFR2 (Homo sapiens (Human), UniProt P35968); assay: VEGFR2 Cellular Assay (FLIPR, VEGF induced intracellular calcium in HUVEC); format: cell-based; settings: VEGF165 stimulation 10 ng/mL, read-out: Receptor VEGFR2 IC50
Experimental: as §1, with “VEGFR2 Cellular Assay Automated” for “Automated”, “of VEGF induced” for “of PDGF-induced”, “cells. HUVEC (human umbilical vein endothelial cells) (Clonetics)” for “cells. NHDF-Ad (Normal Human Dermal Fibroblasts, Adult; Lonza)”, “by VEGF165” for “by PDGF-BB”, “stimulation (10” for “stimulation (30”, “of VEGF” for “of PDGF-BB”

VEGFR2, sequence (P35968 20-1356): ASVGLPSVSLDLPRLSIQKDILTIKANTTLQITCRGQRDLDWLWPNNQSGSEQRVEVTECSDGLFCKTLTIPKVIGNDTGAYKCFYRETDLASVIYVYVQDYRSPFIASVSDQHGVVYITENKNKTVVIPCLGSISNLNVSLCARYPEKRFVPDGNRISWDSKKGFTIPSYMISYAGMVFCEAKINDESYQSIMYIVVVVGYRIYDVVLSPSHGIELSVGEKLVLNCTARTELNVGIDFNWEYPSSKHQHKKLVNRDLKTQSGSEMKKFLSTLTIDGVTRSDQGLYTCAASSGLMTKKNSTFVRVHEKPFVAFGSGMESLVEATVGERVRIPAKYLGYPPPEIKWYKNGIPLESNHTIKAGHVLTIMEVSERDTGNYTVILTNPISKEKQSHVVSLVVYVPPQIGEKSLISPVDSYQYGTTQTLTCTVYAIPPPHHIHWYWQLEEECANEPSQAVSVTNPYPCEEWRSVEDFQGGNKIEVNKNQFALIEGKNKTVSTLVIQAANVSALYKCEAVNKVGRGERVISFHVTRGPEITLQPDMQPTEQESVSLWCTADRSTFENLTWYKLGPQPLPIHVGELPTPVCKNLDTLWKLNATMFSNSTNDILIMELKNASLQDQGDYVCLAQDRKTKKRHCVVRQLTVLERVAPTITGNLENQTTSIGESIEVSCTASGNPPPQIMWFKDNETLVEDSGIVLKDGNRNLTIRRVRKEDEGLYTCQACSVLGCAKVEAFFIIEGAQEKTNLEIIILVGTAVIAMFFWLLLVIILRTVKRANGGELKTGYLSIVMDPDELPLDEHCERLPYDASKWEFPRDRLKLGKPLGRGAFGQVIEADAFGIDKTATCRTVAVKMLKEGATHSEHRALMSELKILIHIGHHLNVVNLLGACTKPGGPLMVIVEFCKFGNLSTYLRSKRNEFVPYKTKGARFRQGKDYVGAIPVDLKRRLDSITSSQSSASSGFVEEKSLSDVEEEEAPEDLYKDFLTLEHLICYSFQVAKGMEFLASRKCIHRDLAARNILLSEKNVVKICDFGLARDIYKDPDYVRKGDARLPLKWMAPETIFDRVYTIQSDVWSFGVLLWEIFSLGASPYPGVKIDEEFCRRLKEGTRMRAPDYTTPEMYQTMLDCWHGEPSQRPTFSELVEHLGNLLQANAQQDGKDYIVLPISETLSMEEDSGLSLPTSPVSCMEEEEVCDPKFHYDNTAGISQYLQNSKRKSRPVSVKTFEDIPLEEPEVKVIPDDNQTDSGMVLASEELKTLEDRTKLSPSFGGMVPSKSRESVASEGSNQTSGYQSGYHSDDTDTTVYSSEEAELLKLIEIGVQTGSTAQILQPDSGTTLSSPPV
VEGFR2 (cytoplasmic domain KDR protein), sequence (P35968 786-1356): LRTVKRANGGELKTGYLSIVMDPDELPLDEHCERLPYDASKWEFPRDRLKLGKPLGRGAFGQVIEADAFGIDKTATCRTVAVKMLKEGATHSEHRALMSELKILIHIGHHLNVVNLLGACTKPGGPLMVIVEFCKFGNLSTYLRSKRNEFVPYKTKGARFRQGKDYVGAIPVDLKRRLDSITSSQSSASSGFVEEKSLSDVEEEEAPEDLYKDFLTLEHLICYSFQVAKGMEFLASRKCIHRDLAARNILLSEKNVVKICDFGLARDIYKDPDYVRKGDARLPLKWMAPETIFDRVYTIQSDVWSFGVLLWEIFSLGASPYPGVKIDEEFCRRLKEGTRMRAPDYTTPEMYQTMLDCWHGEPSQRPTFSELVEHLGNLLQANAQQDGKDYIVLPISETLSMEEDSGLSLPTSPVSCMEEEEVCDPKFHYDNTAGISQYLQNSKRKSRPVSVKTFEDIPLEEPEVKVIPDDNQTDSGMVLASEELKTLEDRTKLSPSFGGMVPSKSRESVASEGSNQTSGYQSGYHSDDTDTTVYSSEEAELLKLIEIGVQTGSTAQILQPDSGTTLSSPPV
PDGFRβ (cytoplasmic domain PDGFR-b protein), sequence (P09619 554-1106): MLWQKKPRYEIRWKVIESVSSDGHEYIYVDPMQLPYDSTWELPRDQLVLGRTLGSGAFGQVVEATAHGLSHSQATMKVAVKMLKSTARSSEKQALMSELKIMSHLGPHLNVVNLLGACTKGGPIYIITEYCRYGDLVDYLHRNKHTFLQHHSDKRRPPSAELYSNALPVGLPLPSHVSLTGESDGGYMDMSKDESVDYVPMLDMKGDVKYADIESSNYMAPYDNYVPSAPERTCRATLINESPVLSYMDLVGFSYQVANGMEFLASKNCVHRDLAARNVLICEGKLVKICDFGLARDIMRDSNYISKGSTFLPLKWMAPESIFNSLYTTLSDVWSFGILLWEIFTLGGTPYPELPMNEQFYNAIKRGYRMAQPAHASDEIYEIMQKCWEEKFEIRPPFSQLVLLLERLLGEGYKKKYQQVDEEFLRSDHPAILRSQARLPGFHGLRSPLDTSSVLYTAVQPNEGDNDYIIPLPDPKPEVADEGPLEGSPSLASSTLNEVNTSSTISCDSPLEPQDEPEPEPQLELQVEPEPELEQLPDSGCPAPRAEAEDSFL
PDGFRβ, sequence (P09619 33-1106): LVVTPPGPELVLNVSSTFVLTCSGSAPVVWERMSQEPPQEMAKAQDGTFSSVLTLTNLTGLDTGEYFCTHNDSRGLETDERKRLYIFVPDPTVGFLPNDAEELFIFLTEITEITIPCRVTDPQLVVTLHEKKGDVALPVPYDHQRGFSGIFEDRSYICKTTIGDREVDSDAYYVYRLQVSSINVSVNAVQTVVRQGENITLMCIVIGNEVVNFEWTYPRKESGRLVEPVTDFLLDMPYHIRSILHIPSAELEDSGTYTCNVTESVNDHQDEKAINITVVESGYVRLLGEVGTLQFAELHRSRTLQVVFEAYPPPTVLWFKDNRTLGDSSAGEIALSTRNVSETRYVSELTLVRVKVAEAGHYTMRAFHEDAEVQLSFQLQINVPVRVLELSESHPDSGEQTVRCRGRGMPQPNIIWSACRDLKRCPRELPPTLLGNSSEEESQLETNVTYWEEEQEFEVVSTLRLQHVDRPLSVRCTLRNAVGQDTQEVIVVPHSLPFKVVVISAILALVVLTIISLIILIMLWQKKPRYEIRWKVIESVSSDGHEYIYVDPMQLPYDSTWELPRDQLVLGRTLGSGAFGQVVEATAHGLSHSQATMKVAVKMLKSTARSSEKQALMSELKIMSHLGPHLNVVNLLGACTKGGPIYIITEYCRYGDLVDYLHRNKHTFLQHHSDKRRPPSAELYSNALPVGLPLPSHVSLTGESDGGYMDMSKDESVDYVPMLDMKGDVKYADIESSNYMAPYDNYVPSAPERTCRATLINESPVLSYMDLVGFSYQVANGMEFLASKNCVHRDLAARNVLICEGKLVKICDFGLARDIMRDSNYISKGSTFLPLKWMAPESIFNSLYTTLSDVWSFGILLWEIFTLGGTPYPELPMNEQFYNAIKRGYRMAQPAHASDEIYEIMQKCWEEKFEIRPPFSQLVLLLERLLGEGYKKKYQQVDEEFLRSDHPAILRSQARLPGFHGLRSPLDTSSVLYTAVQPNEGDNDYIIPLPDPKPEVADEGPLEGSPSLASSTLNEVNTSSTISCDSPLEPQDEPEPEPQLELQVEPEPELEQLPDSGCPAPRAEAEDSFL

Row | SMILES | IC50 [1] [nM] | IC50 (PDGFRβ) [nM] | IC50 [2] [nM] | IC50 (VEGFR2) [nM]
1 | Cc1cccc(NC(=O)Nc2ccc(C#Cc3ccc4nc(N)cn4n3)cc2)c1 [Example 1, 1-{4-[(2-aminoimidazo[1,2-b]pyridazin-6-yl)ethynyl]phenyl}-3-(3-methylphenyl)urea] | 34 | 227 | 20 | 51
2 | O=C(Nc1ccc(C#Cc2ccc3nccn3n2)cc1)Nc1cccc(C(F)(F)F)c1 [Example 2, 1-[4-(imidazo[1,2-b]pyridazin-6-ylethynyl)phenyl]-3-[3-(trifluoromethyl)phenyl]urea] | 32 | 457 | 47 | 962
3 | Cc1cccc(NC(=O)Nc2ccc(C#Cc3ccc4nccn4n3)cc2)c1 [Example 3, 1-[4-(imidazo[1,2-b]pyridazin-6-ylethynyl)phenyl]-3-(3-methylphenyl)urea] | 80 | 70 | 23 | 132
4 | Nc1cn2nc(C#Cc3ccc(NC(=O)Nc4cc(C(F)(F)F)ccc4F)cc3)ccc2n1 [Example 4, 1-{4-[(2-aminoimidazo[1,2-b]pyridazin-6-yl)ethynyl]phenyl}-3-[2-fluoro-5-(trifluoromethyl)phenyl]urea] | 55 | 516 | 73 | 423
5 | O=C(Nc1ccc(C#Cc2ccc3nccn3n2)cc1)Nc1ccc(F)c(Cl)c1 [Example 5, 1-(3-chloro-4-fluorophenyl)-3-[4-(imidazo[1,2-b]pyridazin-6-ylethynyl)phenyl]urea] |  |  | 96 | 
6 | Cc1ccc(F)c(NC(=O)Nc2ccc(C#Cc3ccc4nccn4n3)cc2)c1 [Example 6, 1-(2-fluoro-5-methylphenyl)-3-[4-(imidazo[1,2-b]pyridazin-6-ylethynyl)phenyl]urea] |  |  | 101 | 
7 | O=C(Nc1ccc(C#Cc2ccc3nccn3n2)cc1)Nc1ccc(Cl)c(C(F)(F)F)c1 [Example 7, 1-[4-chloro-3-(trifluoromethyl)phenyl]-3-[4-(imidazo[1,2-b]pyridazin-6-ylethynyl)phenyl]urea] | 43 |  | 127 | 2050
8 | O=C(Nc1ccccc1)Nc1ccc(C#Cc2ccc3nccn3n2)cc1 [Example 8, 1-[4-(imidazo[1,2-b]pyridazin-6-ylethynyl)phenyl]-3-phenylurea] | 185 |  | 267 | 5430
9 | O=C(Nc1ccc(C#Cc2ccc3nccn3n2)cc1)Nc1cc(C(F)(F)F)ccc1F [Example 9, 1-[2-fluoro-5-(trifluoromethyl)phenyl]-3-[4-(imidazo[1,2-b]pyridazin-6-ylethynyl)phenyl]urea] | 93 |  | 448 | 8420
10 | O=C(Nc1ccc(C#Cc2ccc3nc(NC(=O)Nc4cc(C(F)(F)F)ccc4F)cn3n2)cc1)Nc1cc(C(F)(F)F)ccc1F [Example 10, 1-[2-fluoro-5-(trifluoromethyl)phenyl]-3-[4-({2-[({[2-fluoro-5-(trifluoromethyl)phenyl]amino}carbonyl)amino]imidazo[1,2-b]pyridazin-6-yl}ethynyl)phenyl]urea] | > 10000 | > 10000 | 1430 | > 10000
11 | CC(=O)Nc1cn2nc(C#Cc3ccc(NC(=O)Nc4cccc(C)c4)cc3)ccc2n1 [Example 11, N-(6-{[4-({[(3-methylphenyl)amino]carbonyl}amino)phenyl]ethynyl}imidazo[1,2-b]pyridazin-2-yl)acetamide] |  | > 10000 | 3180 | > 10000
12 | Cc1cccc(NC(=O)Nc2ccc(C#Cc3ccc4nc(NC(=O)C5CC5)cn4n3)cc2)c1 [Example 12, N-(6-{[4-({[(3-methylphenyl)amino]carbonyl}amino)phenyl]ethynyl}imidazo[1,2-b]pyridazin-2-yl)cyclopropanecarboxamide] |  | > 10000 | 1310 | > 10000
13 | Cc1ccc(NC(=O)Nc2ccc(C#Cc3ccc4nccn4n3)cc2)cc1 [Example 13, 1-[4-(imidazo[1,2-b]pyridazin-6-ylethynyl)phenyl]-3-(4-methylphenyl)urea] | 67 |  |  | 
14 | Nc1ccc(C#Cc2ccc3nc(NC(=O)Nc4ccc(F)c(Cl)c4)cn3n2)cc1 [Example 14, 1-{6-[(4-aminophenyl)ethynyl]imidazo[1,2-b]pyridazin-2-yl}-3-(3-chloro-4-fluorophenyl)urea] | 6570 | 10500 | 1690 | > 10000
15 | O=C(Nc1ccc(C#Cc2ccc3nc(NC(=O)Nc4ccc(F)c(Cl)c4)cn3n2)cc1)Nc1ccc(F)c(Cl)c1 [Example 15, 1-(3-chloro-4-fluorophenyl)-3-(4-{[2-({[(3-chloro-4-fluorophenyl)amino]carbonyl}amino)imidazo[1,2-b]pyridazin-6-yl]ethynyl}phenyl)urea] | 3610 | 3630 | 2930 | > 10000
16 | Nc1cn2nc(C#Cc3ccc(NC(=O)c4ccccc4)cc3)ccc2n1 [Example 19, N-{4-[(2-aminoimidazo[1,2-b]pyridazin-6-yl)ethynyl]phenyl}benzamide] | > 10000 | > 10000 | 1250 | > 10000
17 | Cc1cccc(C(=O)Nc2cccc(C#Cc3ccc4nccn4n3)c2)c1 [Example 23, N-[3-(imidazo[1,2-b]pyridazin-6-ylethynyl)phenyl]-3-methylbenzamide] | 1530 |  | 295 | 862
18 | Cc1ccc(F)c(NC(=O)Nc2cccc(C#Cc3ccc4nccn4n3)c2)c1 [Example 29, 1-(2-fluoro-5-methylphenyl)-3-[3-(imidazo[1,2-b]pyridazin-6-ylethynyl)phenyl]urea] | > 10000 |  | 4700 | 
19 | Cc1ccc(F)c(NC(=O)Nc2ccccc2C#Cc2ccc3nccn3n2)c1 [Example 30, 1-(2-fluoro-5-methylphenyl)-3-[2-(imidazo[1,2-b]pyridazin-6-ylethynyl)phenyl]urea] | > 10000 |  | 1800 | 
20 | Cc1ccc(F)c(NC(=O)Nc2cccc(C#Cc3cccc4[nH]nc(N)c34)c2)c1 [Example 31, 1-{3-[(3-amino-1H-indazol-4-yl)ethynyl]phenyl}-3-(2-fluoro-5-methylphenyl)urea] |  |  | 21 | 16
21 | Nc1n[nH]c2cccc(C#Cc3cccc(NC(=O)Nc4ccccc4)c3)c12 [Example 32, 1-{3-[(3-amino-1H-indazol-4-yl)ethynyl]phenyl}-3-phenylurea] |  |  | 41 | 20
22 | Cc1ccc(F)c(NC(=O)Nc2ccc(C#Cc3cccc4[nH]nc(N)c34)cc2)c1 [Example 33, 1-{4-[(3-amino-1H-indazol-4-yl)ethynyl]phenyl}-3-(2-fluoro-5-methylphenyl)urea] |  |  | 90 | 162
